Source: patent publication US20240417403A1, “CRYSTALLINE FORMS OF QUINAZOLINE DERIVATIVES, PREPARATION, COMPOSITION AND USE THEREOF” (Hoffmann-La Roche Inc., priority 2021, published 2024)
In brackets after ≈: the same amount, converted by molar mass. Where two headings read alike, the source gives them in different places. Marks after values point to notes of the source that are not given here.

Legend:
Format in all cases: physicochemical
[1] = Mechanical stability (XRPD form change after grinding and tableting); details: for XRPD form change after grinding: grinding ~5 min; for XRPD form change after tableting: tableting ~234 Mpa
Experimental: Mechanical stability of the solid forms was evaluated by monitoring the XRPD form change after grinding (˜5 min) and tableting (˜234 Mpa).

[2] = Slurry competition (interconversion of free base forms at different water activity); details: slurry at 24 ±3° C.
Experimental: Slurry competition experiments were performed to study the interconversion relationship between Freebase Type B and Freebase Type C. […] The inter-conversion relationship among anhydrate Freebase Type B and hydrates Type C/F/G was further investigated under different water activities at RT. the saturated solution of Freebase Type B was obtained via slurry of Freebase Type B at RT overnight in corresponding solvent systems. A mixture of Freebase Type B+C+F+G was added into corresponding saturated solution of Freebase Type B to form suspensions. The suspensions were sampled for XRPD after being stirred for four days at a speed of 750 rpm under RT.

[3] = TGA and DSC/mDSC thermal analysis (characterization of forms); details: for TGA weight loss (%, temp.): to 150° C.
Experimental: In salt screening and evaluation and in polymorph study, TGA was performed using a TA Q500, TA Q5000 or Discovery 5500 TGA from TA Instruments. DSC or mDSC was performed using a TA Q200/Q2000 or Discovery 2500 DSC from TA Instruments.

[4] = Equilibrium solubility in pH 4.5 buffer; details: 37° C., stirred 24 hours
Experimental: (§1) An Agilent 1260 HPLC instrument was utilized and detailed chromatographic conditions for purity and solubility analysis were listed in Table 6.
About 5˜10 mg of solids were suspended in pH 4.5 buffer to get a mixture. The suspensions were stirred for 24 hours, followed by centrifugation and filtration to obtain supernatants for HPLC test.

[5] = Hygroscopicity by DVS
Experimental: DVS is measured via a SMS (Surface Measurement Systems) DVS Intrinsic. The relative humidity at 25° C. is calibrated against deliquescence point of LiCl, Mg(NO3)2 and KCl.
DVS isotherm plot was collected at 25° C. to investigate the selected solid forms stability as a function of humidity. Compared with amorphous freebase, the hygroscopicity of Freebase Type B, Fumarate Type A, Fumarate Type B and Fumarate Type E was lower under 80% RH/25° C.

[6] = Form change on storage/exposure at ambient conditions (XRPD); details: storage / exposure at ambient condition (Freebase Type E: 30 m)
Experimental: About 15 mg of Fumarate Type A of compound (I) was suspended in 0.5 mL of H2O in an HPLC vial. The suspension was magnetically stirred at a speed of about 1000 rpm at RT for 9 days. The wet solids were isolated to afford Fumarate Type C of compound (I) (wet sample was analyzed). […] XRPD patterns and data were shown in FIG. 10 and Table 10, respectively.
About 60 mg of Amorphous Freebase of compound (I) was suspended in 2 mL of THF/H2O (1:4, v/v) in an HPLC vial. The suspension was magnetically stirred at a speed of about 1000 rpm at 5° C. for 4 days. The solids were isolated via centrifugation and dried at ambient condition for about 2 hours. After sweeping the solids by N2 for 20 min at 30° C. Freebase Type E of compound (I) was obtained.

[7] = Contact angle against water (wettability)
Experimental: The wettability of the solid forms was evaluated by the contact angle against water.

[8] = Equilibrium solubility in H2O; details: 37° C., stirred 24 hours
Experimental: as §1
About 5˜10 mg of solids were suspended in H2O to get a mixture. The suspensions were stirred for 24 hours, followed by centrifugation and filtration to obtain supernatants for HPLC test.

[9] = Solid state stability, 40° C./75% RH/open for 1 month (XRPD, HPLC purity); details: for Purity/Initial by HPLC area % / Form Change: 40° C., 75% RH, open; for Form Change: by XRPD
Experimental: as §1
To evaluate the solid state stability of the selected forms (amorphous freebase, Freebase Type F, Fumarate Type A and Fumarate Type B) samples were stored under 40° C./75% RH/open for 1 month. Stability samples were characterized by XRPD to check any solid form change and by HPLC to check purity change.

[10] = Crystal habit by PLM
Source text: The PLM images were captured with Carl Zeiss Axio Scope. A1 microscope at RT.
PLM was used to observe the crystal habit of the particles (amorphous freebase and Fumarate Type A).

[11] = Kinetic solubility in FaSSIF; details: FaSSIF, 37 °C, thermodynamic from solid
Experimental: as §1
Kinetic solubility of amorphous freebase and Fumarate Type B/E was measured in FaSSIF to evaluate the solubility. […] After centrifugation, supernatants were collected for HPLC tests.

[12] = Equilibrium solubility in pH 6.8 buffer; details: 37° C., stirred 24 hours
Experimental: as §1
About 5˜10 mg of solids were suspended in pH 6.8 buffer to get a mixture. The suspensions were stirred for 24 hours, followed by centrifugation and filtration to obtain supernatants for HPLC test.

[13] = Angle of repose (flowability); details: listed as Freebase amorphous
Source text: Form the angle of repose on a fixed base with a retaining lip to retain a layer of powder on the base. Carefully build up a symmetrical cone of powder. Determine the angle of repose by measuring the height (h) and base radius (r) of the cone of powder and calculating the angle of repose a from the following equation α=tan^−1(h/r).
(§2) The results of amorphous freebase, Freebase Type F, Fumarate Type B and Fumarate Type E for flowability and compressibility were summarized in Table 30. Generally, powders with smaller Karl index would show better compressibility and flowability. And powders with smaller angle of repose would show better flowability.

[14] = Bulk density, tap density and Carr index (flowability and compressibility); details: listed as Freebase amorphous
Experimental: Bulk density was determined by adding appropriate amount (m) of material into a 5 mL graduate cylinder and recording its apparent volume (v0). The bulk density was obtained by dividing the amount of material by its apparent volume of the unsettled material (ρ0=m/v0). For tap density, the cylinder was then tapped for 200 times. The tap density was then calculated by dividing the amount of material by its final tapped volume (ρ1=m/v1). Carr index=(ρ1−ρ0)/ρ1.
as §2

Row | XRPD form change after grinding [1] | XRPD form change after tableting [1] | TGA weight loss (%, temp.) ([3]; free base forms) | Solubility in pH 4.5 buffer [4] [mg/mL] | Hygroscopicity (in words) [5] | Weight change at 80% RH/25° C. by DVS [5] [%] | Solubility in H2O [8] [µg/mL] | Form Change [9] | TGA weight loss (150° C., %) ([3]; crystalline salts) [%] | SMILES | Form conversion at ambient conditions [6] | Crystal habit of the particles [10] | further results
1 | No | No | 3.5 (to 150° C.) % | 0.3 | slightly hygroscopic | 0.2 | – | – | – | COc1ccc2ncnc(Nc3ccc(Oc4cc5ncnn5cn4)c(C)c3)c2c1O[C@@H]1CCN(C)CC1(F)F [Freebase Type B, (R)-N-(4-([1,2,4]triazolo[1,5-c]pyrimidin-7-yloxy)-3-methylphenyl)-5-((3,3-difluoro-1-methylpiperidin-4-yl)oxy)-6-methoxyquinazolin-4-amine] | – | – | Critical water activity between Freebase Type B and Type C [2]: 0.8-1; DSC endotherm (° C., peak) ([3]; free base forms): 169.4 °C
2 | – | – | – | – | – | – | – | – | – | COc1ccc2ncnc(Nc3ccc(Oc4cc5ncnn5cn4)c(C)c3)c2c1O[C@@H]1CCN(C)CC1(F)F [Freebase Type E, (R)-N-(4-([1,2,4]triazolo[1,5-c]pyrimidin-7-yloxy)-3-methylphenyl)-5-((3,3-difluoro-1-methylpiperidin-4-yl)oxy)-6-methoxyquinazolin-4-amine] | converted to Freebase Type C | – | –
3 | No | No | – | ≥8.4 | slightly hygroscopic | 0.8 | ≥5000 | No | 1.9 | COc1ccc2ncnc(Nc3ccc(Oc4cc5ncnn5cn4)c(C)c3)c2c1O[C@@H]1CCN(C)CC1(F)F [Fumarate Type A, (R)-N-(4-([1,2,4]triazolo[1,5-c]pyrimidin-7-yloxy)-3-methylphenyl)-5-((3,3-difluoro-1-methylpiperidin-4-yl)oxy)-6-methoxyquinazolin-4-amine] | – | rod-like particles with regular shape | Contact angle [7]: 20.3°; Purity/Initial by HPLC area % [9]: 100.1%; Purity change by HPLC (chemical stability) compared with amorphous freebase ([9]; 40° C./75% RH): lower purity change; Solid form change by XRPD (physical stability) ([9]; 40° C./75% RH/open): no form change; DSC endotherm (° C., peak) ([3]; crystalline salts): 167.6 °C; DSC endotherm (° C., peak) ([3]; fumarate forms): 167.6 °C; TGA weight loss (%, temp.) ([3]; fumarate forms): 1.9 (to 150° C.) %
4 | – | – | – | – | – | – | – | – | 1.5 | COc1ccc2ncnc(Nc3ccc(Oc4cc5ncnn5cn4)c(C)c3)c2c1O[C@@H]1CCN(C)CC1(F)F [Fumarate Type C, (R)-N-(4-([1,2,4]triazolo[1,5-c]pyrimidin-7-yloxy)-3-methylphenyl)-5-((3,3-difluoro-1-methylpiperidin-4-yl)oxy)-6-methoxyquinazolin-4-amine] | Form conversion between Fumarate Type C and Fumarate Type B | – | –
5 | – | – | 1.9 (to 150° C.) % | 0.18 | – | – | 160 (≈ 292 µM) | No | – | COc1ccc2ncnc(Nc3ccc(Oc4cc5ncnn5cn4)c(C)c3)c2c1O[C@@H]1CCN(C)CC1(F)F [amorphous freebase, (R)-N-(4-([1,2,4]triazolo[1,5-c]pyrimidin-7-yloxy)-3-methylphenyl)-5-((3,3-difluoro-1-methylpiperidin-4-yl)oxy)-6-methoxyquinazolin-4-amine] | – | irregular-shaped particles without defined boundary | Contact angle ([7]; listed as Freebase amorphous): 37.2°; solubility at 1 h ([11]; timepoint 1 h): 280 µg/mL (≈ 510 µM); solubility at 2 h ([11]; timepoint 2 h): 270 µg/mL (≈ 492 µM); solubility at 24 h ([11]; timepoint 24 h): 260 µg/mL (≈ 474 µM); Solubility in pH 6.8 buffer [12]: 0.15 mg/mL; Angle of repose [13]: 39.9°; Carr index ([14]; (ρ1−ρ0)/ρ1): 43.8%; Bulk density [14]: 0.23 g/mL; Tapped density ([14]; tapped 200 times): 0.40 g/mL; Purity/Initial by HPLC area % ([9]; listed as Freebase amorphous): 99.2%; Tg, middle temperature ([3]; amorphous free base, starred value in DSC column): 58.7* ° C.; Weight change at 80% RH/25° C. by DVS ([5]; listed as Freebase amorphous): 4.2%
